Source: the supplement of paper PMC10307832

Tests used:
Assay in all cases: relative viability (nuclei count vs DMSO), 5 days (fraction); higher = more cells survive
BEN = test system: BEN
How it was run: (§1)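 Relative viability is defined as nuclei in treated wells over nuclei in vehicle wells. Duplicate plates were run and medians reported. Lung cancer cell lines in 1536-well plates were dosed by pin tool one day after seeding, with one drug or with a fixed anchor-drug dose plus five library-drug doses (not always all listed) in √10 steps, and nuclei were counted after 5 days.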

NCI-H727 = test system: NCI-H727
How it was run: as §1

RERF-LC-KJ = test system: RERF-LC-KJ
How it was run: as §1

NCI-H1944 = test system: NCI-H1944
How it was run: as §1

NCI-H1650 = test system: NCI-H1650
How it was run: as §1

NCI-H2228 = test system: NCI-H2228
How it was run: as §1

NCI-H2405 = test system: NCI-H2405
How it was run: as §1

NCI-H1793 = test system: NCI-H1793
How it was run: as §1

NCI-H1395 = test system: NCI-H1395
How it was run: as §1

LCLC-103H = test system: LCLC-103H
How it was run: as §1

SK-LU-1 = test system: SK-LU-1
How it was run: as §1

NCI-H2087 = test system: NCI-H2087
How it was run: as §1

NCI-H1437 = test system: NCI-H1437
How it was run: as §1

201T = test system: 201T
How it was run: as §1

NCI-H647 = test system: NCI-H647
How it was run: as §1

CAL-12T = test system: CAL-12T
How it was run: as §1

NCI-H322M = test system: NCI-H322M
How it was run: as §1

HCC-827 = test system: HCC-827
How it was run: as §1

NCI-H3122 = test system: NCI-H3122
How it was run: as §1

LCLC-97TM1 = test system: LCLC-97TM1
How it was run: as §1

LXF-289 = test system: LXF-289
How it was run: as §1

## CC(=O)O[C@@]12CO[C@@H]1C[C@H](O)[C@@]1(C)C(=O)[C@H](O)C3=C(C)[C@@H](OC(=O)[C@H](O)[C@@H](NC(=O)OC(C)(C)C)c4ccccc4)C[C@@](O)([C@@H](OC(=O)c4ccccc4)[C@H]21)C3(C)C [Docetaxel] + O=C(CCCCCCC(=O)Nc1ccccc1)NO [Vorinostat] (partner 1 µM)
BEN; first compound 0.0002 µM
  relative viability: 0.526
BEN; first compound 0.000632 µM
  relative viability: 0.526
BEN; first compound 0.002 µM
  relative viability: 0.337
BEN; first compound 0.006325 µM
  relative viability: 0.373
BEN; first compound 0.02 µM
  relative viability: 0.299
NCI-H727; first compound 0.0002 µM
  relative viability: 1.08
NCI-H727; first compound 0.000632 µM
  relative viability: 1.13
NCI-H727; first compound 0.002 µM
  relative viability: 1.2
NCI-H727; first compound 0.006325 µM
  relative viability: 0.748
NCI-H727; first compound 0.02 µM
  relative viability: 0.67
RERF-LC-KJ; first compound 0.0002 µM
  relative viability: 0.591
RERF-LC-KJ; first compound 0.000632 µM
  relative viability: 0.628
RERF-LC-KJ; first compound 0.002 µM
  relative viability: 0.368
RERF-LC-KJ; first compound 0.006325 µM
  relative viability: 0.189
RERF-LC-KJ; first compound 0.02 µM
  relative viability: 0.151
NCI-H1944; first compound 0.0002 µM
  relative viability: 0.604
NCI-H1944; first compound 0.000632 µM
  relative viability: 0.538
NCI-H1944; first compound 0.002 µM
  relative viability: 0.423
NCI-H1944; first compound 0.006325 µM
  relative viability: 0.223
NCI-H1944; first compound 0.02 µM
  relative viability: 0.172
NCI-H1650; first compound 0.0002 µM
  relative viability: 0.54
NCI-H1650; first compound 0.000632 µM
  relative viability: 0.499
NCI-H1650; first compound 0.002 µM
  relative viability: 0.226
NCI-H1650; first compound 0.006325 µM
  relative viability: 0.196
NCI-H1650; first compound 0.02 µM
  relative viability: 0.162
NCI-H2228; first compound 0.0002 µM
  relative viability: 0.565
NCI-H2228; first compound 0.000632 µM
  relative viability: 0.145
NCI-H2228; first compound 0.002 µM
  relative viability: 0.168
NCI-H2228; first compound 0.006325 µM
  relative viability: 0.151
NCI-H2228; first compound 0.02 µM
  relative viability: 0.145
NCI-H2405; first compound 0.0002 µM
  relative viability: 0.839
NCI-H2405; first compound 0.000632 µM
  relative viability: 0.567
NCI-H2405; first compound 0.002 µM
  relative viability: 0.546
NCI-H2405; first compound 0.006325 µM
  relative viability: 0.394
NCI-H2405; first compound 0.02 µM
  relative viability: 0.335
NCI-H1793; first compound 0.0002 µM
  relative viability: 0.724
NCI-H1793; first compound 0.000632 µM
  relative viability: 0.479
NCI-H1793; first compound 0.002 µM
  relative viability: 0.199
NCI-H1793; first compound 0.006325 µM
  relative viability: 0.26
NCI-H1793; first compound 0.02 µM
  relative viability: 0.163
NCI-H1395; first compound 0.0002 µM
  relative viability: 0.672
NCI-H1395; first compound 0.000632 µM
  relative viability: 0.601
NCI-H1395; first compound 0.002 µM
  relative viability: 0.462
NCI-H1395; first compound 0.006325 µM
  relative viability: 0.375
NCI-H1395; first compound 0.02 µM
  relative viability: 0.239
LCLC-103H; first compound 0.0002 µM
  relative viability: 0.703
LCLC-103H; first compound 0.000632 µM
  relative viability: 0.695
LCLC-103H; first compound 0.002 µM
  relative viability: 0.513
LCLC-103H; first compound 0.006325 µM
  relative viability: 0.604
LCLC-103H; first compound 0.02 µM
  relative viability: 0.47
SK-LU-1; first compound 0.0002 µM
  relative viability: 0.754
SK-LU-1; first compound 0.000632 µM
  relative viability: 0.537
SK-LU-1; first compound 0.002 µM
  relative viability: 0.38
SK-LU-1; first compound 0.006325 µM
  relative viability: 0.349
SK-LU-1; first compound 0.02 µM
  relative viability: 0.226
NCI-H2087; first compound 0.0002 µM
  relative viability: 0.663
NCI-H2087; first compound 0.000632 µM
  relative viability: 0.203
NCI-H2087; first compound 0.002 µM
  relative viability: 0.139
NCI-H2087; first compound 0.006325 µM
  relative viability: 0.115
NCI-H2087; first compound 0.02 µM
  relative viability: 0.103
NCI-H1437; first compound 0.0002 µM
  relative viability: 0.838
NCI-H1437; first compound 0.000632 µM
  relative viability: 0.522
NCI-H1437; first compound 0.002 µM
  relative viability: 0.553
NCI-H1437; first compound 0.006325 µM
  relative viability: 0.275
NCI-H1437; first compound 0.02 µM
  relative viability: 0.185
201T; first compound 0.0002 µM
  relative viability: 0.885
201T; first compound 0.000632 µM
  relative viability: 0.932
201T; first compound 0.002 µM
  relative viability: 0.516
201T; first compound 0.006325 µM
  relative viability: 0.478
201T; first compound 0.02 µM
  relative viability: 0.291
NCI-H647; first compound 0.0002 µM
  relative viability: 0.486
NCI-H647; first compound 0.000632 µM
  relative viability: 0.32
NCI-H647; first compound 0.002 µM
  relative viability: 0.196
NCI-H647; first compound 0.006325 µM
  relative viability: 0.14
NCI-H647; first compound 0.02 µM
  relative viability: 0.082
CAL-12T; first compound 0.0002 µM
  relative viability: 0.411
CAL-12T; first compound 0.000632 µM
  relative viability: 0.35
CAL-12T; first compound 0.002 µM
  relative viability: 0.255
CAL-12T; first compound 0.006325 µM
  relative viability: 0.142
CAL-12T; first compound 0.02 µM
  relative viability: 0.12
NCI-H322M; first compound 0.0002 µM
  relative viability: 0.801
NCI-H322M; first compound 0.000632 µM
  relative viability: 0.843
NCI-H322M; first compound 0.002 µM
  relative viability: 0.906
NCI-H322M; first compound 0.006325 µM
  relative viability: 0.711
NCI-H322M; first compound 0.02 µM
  relative viability: 0.481
HCC-827; first compound 0.0002 µM
  relative viability: 0.367
HCC-827; first compound 0.000632 µM
  relative viability: 0.903
HCC-827; first compound 0.002 µM
  relative viability: 0.528
HCC-827; first compound 0.006325 µM
  relative viability: 0.279
HCC-827; first compound 0.02 µM
  relative viability: 0.238
NCI-H3122; first compound 0.0002 µM
  relative viability: 0.909
NCI-H3122; first compound 0.000632 µM
  relative viability: 0.95
NCI-H3122; first compound 0.002 µM
  relative viability: 0.487
NCI-H3122; first compound 0.006325 µM
  relative viability: 0.22
NCI-H3122; first compound 0.02 µM
  relative viability: 0.126
LCLC-97TM1; first compound 0.0002 µM
  relative viability: 0.364
LCLC-97TM1; first compound 0.000632 µM
  relative viability: 0.187
LCLC-97TM1; first compound 0.002 µM
  relative viability: 0.116
LCLC-97TM1; first compound 0.006325 µM
  relative viability: 0.104
LCLC-97TM1; first compound 0.02 µM
  relative viability: 0.0624
LXF-289; first compound 0.0002 µM
  relative viability: 0.797
LXF-289; first compound 0.000632 µM
  relative viability: 0.392
LXF-289; first compound 0.002 µM
  relative viability: 0.168
LXF-289; first compound 0.006325 µM
  relative viability: 0.19
LXF-289; first compound 0.02 µM
  relative viability: 0.118
